# In the supplement of paper PMC10307832:
# Columns and labels:
# Assay in all cases: relative viability (nuclei count vs DMSO), 5 days (fraction); higher = more cells survive
# [1] = compound: CC1=C(CC(=O)O)c2cc(F)ccc2/C1=C\c1ccc([S+](C)[O-])cc1 [Sulindac] + CC(C)C[C@H](NC(=O)[C@H](Cc1ccccc1)NC(=O)c1cnccn1)B(O)O [Bortezomib] (partner 0.002 µM)
# Procedure, shortened: (§1)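 Relative viability equals treated-well nuclei counts divided by vehicle-well nuclei counts. Counts came from 4× images of lung cancer cell lines grown in 1536-well plates for 5 days after pin-tool dosing on the day after seeding. Dosing used one drug alone or a fixed anchor-drug dose plus five library-drug doses (not always all listed) in √10 steps, and values are medians of duplicate plates.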
# [2] = compound: CC1=C(CC(=O)O)c2cc(F)ccc2/C1=C\c1ccc([S+](C)[O-])cc1 [Sulindac] + COc1cc2c(Oc3ccc(NC(=O)C4(C(=O)Nc5ccc(F)cc5)CC4)cc3F)ccnc2cc1OCCCN1CCOCC1 [Foretinib] (partner 0.25 µM)
# Procedure, shortened: as §1
# [3] = compound: CC1=C(CC(=O)O)c2cc(F)ccc2/C1=C\c1ccc([S+](C)[O-])cc1 [Sulindac] + Cc1nc(NC(=O)N2CCC[C@H]2C(N)=O)sc1-c1ccnc(C(C)(C)C(F)(F)F)c1 [Alpelisib] (partner 2 µM)
# Procedure, shortened: as §1
# [4] = compound: CN[C@@H]1C[C@H]2O[C@@](C)([C@@H]1OC)n1c3ccccc3c3c4c(c5c6ccccc6n2c5c31)C(=O)NC4 [Staurosporine] + O=C(CCCCCCC(=O)Nc1ccccc1)NO [Vorinostat] (partner 1 µM)
# Procedure, shortened: as §1
cell line,measurement,setting,value
UMC-11,relative viability,[1]; first compound 0.08 µM,0.952
same,relative viability,[1]; first compound 0.253 µM,0.996
same,relative viability,[1]; first compound 0.8 µM,0.359
same,relative viability,[1]; first compound 2.53 µM,0.703
same,relative viability,[1]; first compound 8 µM,0.846
same,relative viability,[2]; first compound 0.08 µM,1.33
same,relative viability,[2]; first compound 0.253 µM,1.12
same,relative viability,[2]; first compound 0.8 µM,0.739
same,relative viability,[2]; first compound 2.53 µM,0.986
same,relative viability,[2]; first compound 8 µM,1.12
same,relative viability,[3]; first compound 0.08 µM,1.1
same,relative viability,[3]; first compound 0.253 µM,1.05
same,relative viability,[3]; first compound 0.8 µM,0.876
same,relative viability,[3]; first compound 2.53 µM,0.98
same,relative viability,[3]; first compound 8 µM,1.11
same,relative viability,[4]; first compound 0.005 µM,0.343
same,relative viability,[4]; first compound 0.01581 µM,0.136
same,relative viability,[4]; first compound 0.05 µM,0.0975
same,relative viability,[4]; first compound 0.1581 µM,0.0825
same,relative viability,[4]; first compound 0.5 µM,0.066
